Source: patent publication US6884808B2, “Heterocycle-containing carboxylic acid derivative and drug containing the same” (Eisai Co. Ltd., priority 1995, dated 2005)
pIC50: −log10 of the molar value.

Experiments:
[1] = biological target: T1, Retinoic acid receptor: RAR (Homo sapiens, UniProt P10276); test: Receptor binding assay by using human promyelocytic leukemia cells HL60 (nucleus-extracted fraction, 3H-all-trans retinoic acid); settings: 50% inhibition concentration of 3H-all-trans retinoic acid binding, 4° C. for 16 hours
T1 construct: using a fraction extracted from the nucleus of HL60; endogenous in cells; host or cells: HL60 cells, nucleus-extracted fraction (0.4 M KCl extract, 100,000 x g supernatant)
T1 sequence (P10276 1-462): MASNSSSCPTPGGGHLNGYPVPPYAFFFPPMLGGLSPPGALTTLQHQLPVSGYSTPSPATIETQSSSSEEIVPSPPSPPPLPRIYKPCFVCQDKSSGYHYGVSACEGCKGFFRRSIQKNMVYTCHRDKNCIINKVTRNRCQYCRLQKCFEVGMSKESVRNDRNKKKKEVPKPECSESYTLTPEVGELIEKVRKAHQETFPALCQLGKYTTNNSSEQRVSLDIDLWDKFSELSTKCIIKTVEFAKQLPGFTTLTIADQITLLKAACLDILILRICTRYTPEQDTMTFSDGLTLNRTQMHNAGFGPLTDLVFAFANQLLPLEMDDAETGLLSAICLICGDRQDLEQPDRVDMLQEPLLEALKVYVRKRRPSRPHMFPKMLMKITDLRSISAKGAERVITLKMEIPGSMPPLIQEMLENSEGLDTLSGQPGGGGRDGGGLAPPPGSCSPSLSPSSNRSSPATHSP
Description: Receptor binding assay by using human promyelocytic leukemia cells HL60
The nucleus-extracted fraction was prepared as described below.
In 15 ml of Solution A [5 mM sodium phosphate (pH 7.4), 10 mM monothioglycerol, 10% v/v glycerol, 1 mM phenylmethyl sulfonyl fluoride (PMSF), 10 μg/ml of aprotinin and 25 μg/ml of leupeptin], HL60 cells (5×10^8) were suspended. The resulting suspension was homogenized, followed by centrifugal separation to remove the supernatant. The precipitate so obtained was suspended in 15 ml of Solution B [10 mM tris-HCl (Tris-HCl) (pH 8.5), 10 mM monothioglycerol, 10% (v/v) glycerol, 1 mM PMSF, 10 μg/ml aprotinin, 25 μg/ml leupeptin and 0.4 M KC1]. After being allowed to stand at 4° C. for one hour, the resulting suspension was subjected to ultracentrifugation at 100,000 xg and 4° C. for one hour.
Receptor binding assay was carried out as follows:
The resulting mixture was allowed to stand at 4° C. for 16 hours. […] The count of the supernatant was determined by a scintillation counter.

HL60 cells = test: Differentiation and induction effects on HL60 cells (CD11b positive cells, flow cytometry); assay type: cell-based; settings: Homo sapiens, HL-60, 120 h; concentration at which the existing ratio of CD11b positive cells becomes 33%; cultivation for 5 days; read-out: Differentiation and induction effects of HL60 cells ED1/3
Excerpt: Differentiation and Induction Effects on HL60 Cells
It is known that human-derived promyelocytic leukemia cell strains HL60 differentiate into the corresponding granulocytic cells in the presence of all-trans retinoic acid [Breitman, T. Selonick., S. and Colling, S. Proc. Natl. Acad. Sci., 77, 2936(1980)]. In general, cells after differentiation have come to express specific differentiated antigens on their surface. When the HL60 cells are differentiated into granulocytic cells, CD11b which is a differential antigen between granulocytes and monocytes is expressed on the surface of the cells [Fontana, J A., Reppuci, A. Durham, J P. and Mirand, D. Cancer Res. 46, 2469-2473(1986)]. Effects of the invention compound on the differentiation and induction into granulocyte cells were studied by making use of the above-described phenomenon.
HL60 cells were cultured and kept in RPMI 1640 (a medium formulated by Rosewell Park Memorial Institute) to which 10% bovine fetal serum, 1 mM sodium […], 50 μM β-mercaptoethanol, 100 IU/ml of penicillin and 100 μg/ml of streptomycin had been added.
On each well of a 24-well plate, a 1 ml portion of the suspension containing HL60 in an amount of 1×10^5 […] was seeded. The invention compound was then added thereto at varied concentrations, followed by cultivation for 5 days in a 5% CO2-air incubator. After cultivation, the cells of each well were collected in a test tube, to which an FITC-labeled monoclonal antibody against Cd11b, that is, a granulocyte-monocyte specific antigen was added. The cells were then immobilized with 0.2% paraformaldehyde. The existing ratio of CD11b positive cells in the vial HL60 cell group present in each well was determined using flow cytometry [Miller, L J., Schwarting, R. and Springer, T A. J. Immunol. 137, 2891-2900(1986)]. The existing ratios of CD11b positive cells-of-compounds which will be described below were increased according to the concentration. The concentration at which the existing ratio of the positive cells becomes 33% is defined as ED1/3.

Row | SMILES | melting point | pIC50 [1] | EC (33% CD11b positive cells) (HL60 cells)
1 | CC1(C)CC(C)(C)c2nc(-c3ccc(-c4ccc(C(=O)O)cc4)[nH]3)cnc21 [Compound of Ex. 43, 4-[2-[5-[2-(5,5,7,7-Tetramethylcyclopenta[b]pyrazinyl)]-pyrrolyl]]benzoic acid] | 269 °C (dec.) | 7.44 | 0.00036 µM
2 | CC1(C)CCC(C)(C)c2cc(-c3ccc(-c4ccc(C(=O)O)cc4)[nH]3)ccc21 [1), reference compound] |  | 9.30 | 0.00094 µM
3 | CC(C)c1ncc(-c2ccc(-c3ccc(C(=O)O)cc3)[nH]2)nc1C(C)C [Compound of Ex. 42, 4-[2-[5-[2-(5,6-Diisopropylpyrazinyl)]pyrrolyl]]benzoic acid] | 246 °C (dec.) | 8.70 | 0.00033 µM
4 | CC1(C)CCC(C)(C)c2nc(-c3cc(-c4ccc(C(=O)O)cc4)no3)cnc21 [Compound of Ex. 23, 4-[3-[5-[2-(5,6,7,8-Tetrahydro-5,5,8,8-tetramethylquinoxalyl)]isoxazolyl]]benzoic acid] |  | 7.96 | 0.0006 µM

Continued, in another order:

Row | melting point | pIC50 [1] | SMILES | EC (33% CD11b positive cells) (HL60 cells)
5 |  | > 9.30 | CN1CCCC(C)(C)c2cc(-c3ccc(-c4ccc(C(=O)O)cc4)[nH]3)ccc21 [Compound of Ex. 85, 4-{2-{5-[7-(1,5,5-Trimethyl-2,3,4,5-tetrahydro-1H-benzazepinyl)]pyrrolyl}}benzoic acid] | 0.001 µM
6 |  | 8.80 | CC1(C)CCC(C)(C)c2nc(-c3ccc(-c4ccc(C(=O)O)cc4)[nH]3)cnc21 [Compound of Ex. 6, 4-[2-[5-[2-(5,6,7,8-Tetrahydro-5,5,8,8-tetramethylquinoxalyl)]pyrrolyl]]benzoic acid] | 5.6e-05 µM
